As usually defined, the inhibition is the drop in the measured response relative to a control, in per cent. In general, IC50 refers to the concentration that gives 50% inhibition.

Results on 44 molecules are retold here after US20120189670A1, “PHARMACEUTICAL COMPOSITIONS AND FORMULATIONS INCLUDING INHIBITORS OF THE PLECKSTRIN HOMOLOGY DOMAIN AND METHODS FOR USING SAME” (priority 2009, published 2012).

Experiment [1] addresses AKT (phospho-Ser^473-AKT) in BxPC-3 (Homo sapiens, UniProt P31749). Nature of the experiment: Western blot phospho-Ser473-AKT in BxPC-3 cells. The settings on record: for inhibition at 10 µM: BXPC-3, read-out: % pAKT Inhibition At 10 μM.
The next experiment deals with pancreatic cancer cells. The experiment in a line: Cell viability assay (Table 3). The settings on record: for Cell viability (IC50): viability assay, cell line not given; for IC50: Homo sapiens, Pancreatic cancer cell, read-out: Cell viability (IC50).
Experiment [2] deals with AKT (phospho-Ser^473-AKT) in MiaPaCa-2 cells (Homo sapiens, UniProt P31749). The experiment in a line: Western blot phospho-Ser473-AKT in MiaPaCa-2 cells. The settings on record: for pAKT inhibition (IC50): MiaPaCa-2 cells.
Experiment [3] relates to BxPC-3 pancreatic cell lines. The experiment in a line: MTT cell survival, BxPC-3. In kind it is cell-based. The settings on record: Homo sapiens; BxPC-3, MTT.

Some results are limits rather than exact numbers.

AKT (phospho-Ser^473-AKT) in BxPC-3, sequence (P31749 whole entry): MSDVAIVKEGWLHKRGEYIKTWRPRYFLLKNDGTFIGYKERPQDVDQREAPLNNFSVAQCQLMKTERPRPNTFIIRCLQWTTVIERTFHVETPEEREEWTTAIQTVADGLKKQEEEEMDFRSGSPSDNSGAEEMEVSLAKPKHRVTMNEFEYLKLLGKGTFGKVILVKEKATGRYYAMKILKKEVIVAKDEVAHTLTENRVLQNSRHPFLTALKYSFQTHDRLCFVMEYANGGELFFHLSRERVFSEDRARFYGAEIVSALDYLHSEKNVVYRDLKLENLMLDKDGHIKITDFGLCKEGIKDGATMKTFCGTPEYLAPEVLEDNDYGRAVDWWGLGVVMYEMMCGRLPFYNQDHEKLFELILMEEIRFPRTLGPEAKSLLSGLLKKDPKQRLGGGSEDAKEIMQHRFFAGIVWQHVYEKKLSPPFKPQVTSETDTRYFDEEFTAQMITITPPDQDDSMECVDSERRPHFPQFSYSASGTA
AKT (phospho-Ser^473-AKT) in MiaPaCa-2 cells, sequence (P31749 whole entry): as above

Turning to `Cc1nnc(NS(=O)(=O)c2ccc(N)cc2)s1` [Compound 105, 4-Amino-N-(5-methyl-1,3,4-thiadiazol-2-yl)benzenesulfonamide], the inhibition at 10 µM in experiment [1] was 11%.
Still for that read-out and setting: for `CCCCCCc1ccc(S(=O)(=O)Nc2nncs2)cc1` [Compound 154, 4-Hexyl-N-(1,3,4-thiadiazol-2-yl)benzenesulfonamide] the value was less than 10%.
For the molecule `COc1cc(NS(=O)(=O)c2ccc(Nc3ccco3)cc2)nc(OC)n1` [Compound 444], the “Cell viability (IC50)” value with pancreatic cancer cells is “N/I”.
`CC(=O)Nc1ccc(S(=O)(=O)Nc2nnc(S(N)(=O)=O)s2)cc1` [Compound 138, N-(4-(N-(5-Sulfamoyl-1,3,4-thiadiazol-2-yl)sulfamoyl)phenyl)acetamide]: the inhibition at 10 µM in experiment [1] was less than 10%.
The same measure, in the same setting: for `Nc1ccc(S(=O)(=O)Nc2nnc(CO)s2)cc1` [Compound 125, 4-Amino-N-(5-(hydroxymethyl)-1,3,4-thiadiazol-2-yl)benzenesulfonamide] the value was 10%; for `CC(=O)Nc1ccc(S(=O)(=O)Nc2nnc(C(C)(C)C)s2)cc1` [Compound 114, N-(4-(N-(5-tert-Butyl-1,3,4-thiadiazol-2-yl)sulfamoyl)phenyl)acetamide], 20%.
On the same count and under the same terms, for `Nc1ccc(S(=O)(=O)Nc2nnc(CC(=O)O)s2)cc1` [Compound 117, 2-(5-(4-Aminophenylsulfonamido)-1,3,4-thiadiazol-2-yl)acetic Acid] the value was 23%.
In the case of `O=C(Nc1ccccc1SCCS(=O)(=O)c1ccc(Cl)cc1)c1ccccc1Cl` [Compound 436], the “Cell viability (IC50)” value in the experiment on pancreatic cancer cells is recorded as “N/I”. The “pAKT inhibition (IC50)” value in experiment [2] is reported as “N/I”.
Regarding `CCCCCCCCCCCCc1ccc(S(=O)(=O)Nc2nnc(C)s2)cc1` [Compound 108, 4-Dodecyl-N-(5-methyl-1,3,4-thiadiazol-2-yl)benzenesulfonamide], the inhibition at 10 µM in experiment [1] is 64%. In experiment [3], this molecule had an IC50 of 61 µM.
For `Cc1cc(C)nc(NS(=O)(=O)c2ccc(NC(=O)c3ccoc3C)cc2)n1` [Compound 446], the “Cell viability (IC50)” value in the experiment on pancreatic cancer cells is “N/I”. The “pAKT inhibition (IC50)” value in experiment [2] is reported as “N/I”.
In experiment [3], `CCCCCCCCCCCCc1ccc(S(=O)(=O)Nc2nnc(C(=O)OCC)s2)cc1` [Compound 124E, Ethyl 5-(4-dodecylphenylsulfonamido)-1,3,4-thiadiazole-2-carboxylate] showed an IC50 of 36 µM.
On to `COc1cc(NS(=O)(=O)c2ccc(Nc3ccco3)cc2)nc(OC)n1` [Compound 454], for which the “pAKT inhibition (IC50)” value in experiment [2] is recorded as “N/I”.
As for `CC(=O)Nc1ccc(NS(=O)(=O)c2c(C)noc2C)cc1` [Compound 451], the “Cell viability (IC50)” value in the experiment on pancreatic cancer cells is “N/I”. Besides, the “pAKT inhibition (IC50)” value in experiment [2] is listed as “N/I”.
As for `CCOc1ccccc1C(=O)Nc1ccccc1C(=O)O` [Compound 441], the “Cell viability (IC50)” value in the experiment on pancreatic cancer cells is “N/I”. Further, in experiment [2], half-maximal inhibition (IC50) was put at 25 µM.
Regarding `O=S(=O)(Nc1nccs1)c1ccc2ccccc2c1` [Compound 437], in the experiment with pancreatic cancer cells, the “Cell viability (IC50)” value was “N/I”. In addition, the “pAKT inhibition (IC50)” value in experiment [2] is on record as “N/I”.
With `COc1cc(NS(=O)(=O)c2ccc(C(C)=O)cc2)nc(OC)n1` [Compound 450], the “Cell viability (IC50)” value in the experiment on pancreatic cancer cells was “N/I”.
In the case of `Cc1cc(C)nc(NS(=O)(=O)c2ccc(NC(=O)c3ccoc3C)cc2)n1` [Compound 447], in the experiment with pancreatic cancer cells, the “Cell viability (IC50)” value was “N/I”. Besides, the “pAKT inhibition (IC50)” value in experiment [2] is listed as “N/I”.
On to `CCOC(=O)Cc1nnc(NS(=O)(=O)c2ccc(NC(C)=O)cc2)s1` [Compound 118E, Ethyl 2-(5-(4-Acetamidophenylsulfonamido)-1,3,4-thiadiazol-2-yl)acetate], for which the inhibition at 10 µM in experiment [1] amounted to 55%.
The same measure, in the same setting: for `CCc1nnc(NS(=O)(=O)c2ccc(NC(C)=O)cc2)s1` [Compound 110, N-(4-(N-(5-Ethyl-1,3,4-thiadizol-2-yl)sulfamoyl)phenyl)acetamide] the value was 45%.
For `Cc1onc(-c2ccccc2)c1C(=O)Nc1ccc(S(=O)(=O)Nc2ncccn2)cc1` [Compound 453], the “Cell viability (IC50)” value in the experiment with pancreatic cancer cells is recorded as “N/I”. Besides, in experiment [2], the “pAKT inhibition (IC50)” value is listed as “N/I”.
In experiment [3], `CCCCCCCCCCCCc1ccc(S(=O)(=O)Nc2nnc(CC(=O)OCC)s2)cc1` [Compound 120E, Ethyl 2-(5-(4-Dodecylphenylsulfonamido)-1,3,4-thiadiazol-2-yl)acetate] had an IC50 of 70 µM.
In the case of `CCCCCCCCc1ccc(S(=O)(=O)Nc2nncs2)cc1` [Compound 153, 4-Octyl-N-(1,3,4-thiadiazol-2-yl)benzenesulfonamide], the inhibition at 10 µM in experiment [1] worked out at 10%.
In the case of `CCCCCCCCCCCCc1ccc(S(=O)(=O)Nc2nnc(CC(=O)O)s2)cc1` [Compound 120, 2-(5-(4-Dodecylphenylsulfonamido)-1,3,4-thiadiazol-2-yl)acetic Acid], the half-maximal inhibitory concentration (IC50) in experiment [3] was more than 100 µM.
Take `Cc1nnc(NS(=O)(=O)c2ccc(NS(=O)(=O)c3ccc4ccccc4c3)cc2)s1` [Compound 455]: in the experiment with pancreatic cancer cells, the “Cell viability (IC50)” value was “did not exhibit cytotoxicity and N/I”.
Consider `CC(=O)Nc1ccc(S(=O)(=O)Nc2nnc(CO)s2)cc1` [Compound 126, N-(4-(N-(5-(hydroxymethyl)-1,3,4-thiadiazol-2-yl)sulfamoyl)phenyl)acetamide], for which the inhibition at 10 µM in experiment [1] was less than 10%.
As for `CCCCCCCCCCCCc1ccc(S(=O)(=O)Nc2nnc(CC)s2)cc1` [Compound 112, 4-Dodecyl-N-(5-ethyl-1,3,4-thiadiazol-2-yl)benzenesulfonamide], in experiment [3], the 50% inhibitory concentration (IC50) is 32 µM.
Consider `CCc1nnc(NS(=O)(=O)c2ccc(N)cc2)s1` [Compound 109, 4-Amino-N-(5-ethyl-1,3,4-thiadiazol-2-yl)benzenesulfonamide], for which, in experiment [1], the inhibition at 10 µM stood at 16%.
Same read-out and setting: for `CCOC(=O)c1nnc(NS(=O)(=O)c2ccc(NC(C)=O)cc2)s1` [Compound 122E, Ethyl 5-(4-Acetamidophenylsulfonamido)-1,3,4-thiadiazole-2-carboxylate] the value was less than 10%; for `CC(=O)Nc1ccc(S(=O)(=O)Nc2nnc(C)s2)cc1` [Compound 106, N-(4-(N-(5-Methyl-1,3,4-thiadizol-2-yl)sulfamoyl)phenyl)acetamide], less than 10%.
In the case of `CCCCCCCCCCCCc1ccc(S(=O)(=O)Nc2nnc(C(C)(C)C)s2)cc1` [Compound 116, N-(5-tert-Butyl-1,3,4-thiadiazol-2-yl)-4-dodecylbenzenesulfonamide], the inhibition at 10 µM in experiment [1] came out at 36%. Also, the IC50 in experiment [3] was found to be 45 µM.
On to `COc1ccc(NC(=O)c2ccccc2NC(=O)c2ccccc2C(=O)O)c(OC)c1` [Compound 442], for which the “Cell viability (IC50)” value in the experiment on pancreatic cancer cells was “N/I”. For the same molecule, the “pAKT inhibition (IC50)” value in experiment [2] is “N/I”.
In the case of `CCCCCCCCCCCCc1ccc(S(=O)(=O)Nc2nnc(CO)s2)cc1` [Compound 128, 4-Dodecyl-N-(5-(hydroxymethyl)-1,4-thiadiazol-2-yl)benzenesulfonamide], in experiment [3], it took 37 µM to reach half-maximal inhibition (IC50).
In the case of `O=C(Nc1ccccc1)c1ccccc1NC(=O)c1ccccc1C(=O)O` [Compound 439], in the experiment on pancreatic cancer cells, the “Cell viability (IC50)” value is “N/I”.
For `O=C(O)c1ccccc1C(=O)Nc1ccccc1N1CCOCC1` [Compound 438], in the experiment with pancreatic cancer cells, the “Cell viability (IC50)” value was “N/I”. Besides, the “pAKT inhibition (IC50)” value in experiment [2] is listed as “N/I”.
As for `Nc1ccc(S(=O)(=O)Nc2ccc(S(=O)(=O)Nc3nnc(S(N)(=O)=O)s3)cc2)cc1` [Compound 456], in the experiment with pancreatic cancer cells, the “Cell viability (IC50)” value is recorded as “N/I”.
With `Nc1ccc(S(=O)(=O)Nc2nnc(S(N)(=O)=O)s2)cc1` [Compound 131, 5-(4-Aminophenylsulfonamido)-1,3,4-thiadiazole-2-sulfonamide], the inhibition at 10 µM in experiment [1] was 18%.
Same read-out and setting: for `CC(=O)Nc1ccc(S(=O)(=O)Nc2nnc(CC(=O)O)s2)cc1` [Compound 118, 2-(5-(4-Acetamidophenylsulfonamido)-1,3,4-thiadiazol-2-yl)acetic Acid] the value was 19%; for `CCCCc1ccc(S(=O)(=O)Nc2nncs2)cc1` [Compound 155, 4-Butyl-N-(1,3,4-thiadiazol-2-yl)benzenesulfonamide], less than 10%.
For the molecule `COc1cc(NS(=O)(=O)c2ccc(NC(=O)c3ccco3)cc2)nc(OC)n1` [Compound 445], the “Cell viability (IC50)” value in the experiment on pancreatic cancer cells was “N/I”.
On to `Cc1noc(C)c1S(=O)(=O)Nc1ccc(Oc2c(Cl)cccc2Cl)nc1` [Compound 448], for which the IC50 in the experiment on pancreatic cancer cells is 80 µM. In experiment [2], the “pAKT inhibition (IC50)” value is “N/I”.
On to `COc1cc(NS(=O)(=O)c2ccc(NC(=O)C(C)(C)C)cc2)nc(OC)n1` [Compound 452], for which the “Cell viability (IC50)” value in the experiment on pancreatic cancer cells is given as “N/I”. Further, in experiment [2], the “pAKT inhibition (IC50)” value is “N/I”.
Regarding `CC(C)(C)c1nnc(NS(=O)(=O)c2ccc(N)cc2)s1` [Compound 113, 4-Amino-N-(5-tert-butyl-1,3,4-thiadiazol-2-yl)benzenesulfonamide], in experiment [1], the inhibition at 10 µM was determined as 13%.
Regarding `COc1cccc(OC)c1C(=O)Nc1ccc(S(=O)(=O)Nc2ccccn2)cc1` [Compound 449], the IC50 in the experiment with pancreatic cancer cells is 190 µM. In addition, in experiment [2], the “pAKT inhibition (IC50)” value is “N/I”.
As for `CCCCCCCCCCCCc1ccc(S(=O)(=O)Nc2nnc(CCCCCN(C)c3ccc([N+](=O)[O-])c4nonc34)s2)cc1` [Compound 137, 4-Dodecyl-N-(5-(5-(methyl(7-nitrobenzo[c][1,2,5]oxadiazol-4-yl)amino)pentyl)-1,3,4-thiadiazol-2-yl)benzenesulfonamide], in experiment [1] (BxPC-3 cells), the “AKT phosphorylation inhibition (qualitative)” value was “inhibited AKT phosphorylation in a fashion similar to 104”.
